Laboratory results from patent US10870647B2, “Imidazopyridine derivative, method for preparing same, and pharmaceutical composition containing same as active ingredient for preventing or treating cancer” (DAEGU-GYEONGBUK MEDICAL INNOVATION FOUNDATION, priority 2016, dated 2020).
Read-outs that look alike come from different tables or passages of the source.

Key:
Test in all cases: Kinase selectivity, scanMAX Kinase assay panel (DiscoverX), % control at 1 uM
Type in all cases: binding
[1] = target: T1, scanMAX Kinase assay panel (Homo sapiens, UniProt P51955); details: NEK2; 1 uM; read-out: Percent Control (%)
T1 construct: purchased DiscoverX
T1 sequence (P51955 1-445): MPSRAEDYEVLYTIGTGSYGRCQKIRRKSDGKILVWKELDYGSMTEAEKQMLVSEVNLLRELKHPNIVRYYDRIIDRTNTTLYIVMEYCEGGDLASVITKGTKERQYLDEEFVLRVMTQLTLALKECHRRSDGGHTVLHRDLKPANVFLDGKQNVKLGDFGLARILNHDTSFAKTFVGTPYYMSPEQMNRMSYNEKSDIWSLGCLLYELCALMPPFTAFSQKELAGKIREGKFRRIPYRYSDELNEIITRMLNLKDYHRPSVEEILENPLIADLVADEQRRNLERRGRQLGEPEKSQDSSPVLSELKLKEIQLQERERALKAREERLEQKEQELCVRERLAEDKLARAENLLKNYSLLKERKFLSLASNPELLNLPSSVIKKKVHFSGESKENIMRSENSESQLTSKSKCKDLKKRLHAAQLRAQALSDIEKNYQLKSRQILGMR
Method in brief: (§1)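 Compounds were tested at 1 uM in DMSO against each enzyme in the panel. Percent control was calculated as (compound − positive control)/(negative control − positive control) × 100, and a compound was scored active on a kinase when this value fell below 35.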

[2] = target: T2, scanMAX Kinase assay panel (Homo sapiens, UniProt P10721, V559D/V654A); details: KIT (V559D, V654A); 1 uM; read-out: Percent Control (%)
T2 construct: purchased DiscoverX
T2 sequence (P10721 26-976 V559D/V654A): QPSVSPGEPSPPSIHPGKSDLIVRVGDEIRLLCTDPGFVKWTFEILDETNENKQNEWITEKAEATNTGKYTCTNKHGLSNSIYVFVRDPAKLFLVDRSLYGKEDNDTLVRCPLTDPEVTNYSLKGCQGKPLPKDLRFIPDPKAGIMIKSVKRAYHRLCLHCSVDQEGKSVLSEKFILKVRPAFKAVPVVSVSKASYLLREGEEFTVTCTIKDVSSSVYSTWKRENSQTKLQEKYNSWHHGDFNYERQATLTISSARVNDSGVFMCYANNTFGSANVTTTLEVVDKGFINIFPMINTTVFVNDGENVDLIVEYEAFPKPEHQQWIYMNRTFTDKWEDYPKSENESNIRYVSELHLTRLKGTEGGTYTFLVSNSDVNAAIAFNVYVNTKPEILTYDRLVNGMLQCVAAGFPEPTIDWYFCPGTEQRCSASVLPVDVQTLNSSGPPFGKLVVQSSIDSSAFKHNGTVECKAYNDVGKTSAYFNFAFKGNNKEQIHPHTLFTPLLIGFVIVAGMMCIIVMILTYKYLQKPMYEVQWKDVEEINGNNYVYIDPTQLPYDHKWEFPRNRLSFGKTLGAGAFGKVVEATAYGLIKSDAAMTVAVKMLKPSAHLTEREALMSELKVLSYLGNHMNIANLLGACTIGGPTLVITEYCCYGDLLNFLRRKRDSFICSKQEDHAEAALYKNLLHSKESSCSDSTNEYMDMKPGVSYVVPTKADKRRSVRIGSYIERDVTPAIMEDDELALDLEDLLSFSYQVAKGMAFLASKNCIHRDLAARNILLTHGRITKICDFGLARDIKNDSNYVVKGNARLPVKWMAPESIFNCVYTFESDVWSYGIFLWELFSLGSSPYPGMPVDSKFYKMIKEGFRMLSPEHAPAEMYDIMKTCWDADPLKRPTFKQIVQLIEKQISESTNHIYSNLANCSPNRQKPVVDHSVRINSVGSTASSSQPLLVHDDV
Method in brief: as §1

[3] = target: T3, scanMAX Kinase assay panel (Homo sapiens, UniProt Q96BR1); details: SGK3; 1 uM; read-out: Percent Control (%)
T3 construct: purchased DiscoverX
T3 sequence (Q96BR1 1-496): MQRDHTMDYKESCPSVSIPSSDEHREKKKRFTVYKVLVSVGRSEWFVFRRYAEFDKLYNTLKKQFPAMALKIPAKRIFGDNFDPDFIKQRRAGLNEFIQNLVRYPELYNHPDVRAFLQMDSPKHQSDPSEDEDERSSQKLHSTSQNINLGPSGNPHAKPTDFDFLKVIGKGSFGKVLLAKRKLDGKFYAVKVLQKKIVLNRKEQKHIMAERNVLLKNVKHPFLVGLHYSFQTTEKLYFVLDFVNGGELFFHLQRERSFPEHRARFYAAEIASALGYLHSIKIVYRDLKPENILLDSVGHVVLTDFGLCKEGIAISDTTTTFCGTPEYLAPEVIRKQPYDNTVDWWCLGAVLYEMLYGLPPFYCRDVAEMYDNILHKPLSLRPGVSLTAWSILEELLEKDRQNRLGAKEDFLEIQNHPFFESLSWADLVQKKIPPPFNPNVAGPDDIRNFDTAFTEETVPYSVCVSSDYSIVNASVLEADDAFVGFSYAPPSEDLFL
Method in brief: as §1

[4] = target: T4, scanMAX Kinase assay panel (Homo sapiens, UniProt Q86YV6); details: MYLK4; 1 uM; read-out: Percent Control (%)
T4 construct: purchased DiscoverX
T4 sequence (Q86YV6 1-388): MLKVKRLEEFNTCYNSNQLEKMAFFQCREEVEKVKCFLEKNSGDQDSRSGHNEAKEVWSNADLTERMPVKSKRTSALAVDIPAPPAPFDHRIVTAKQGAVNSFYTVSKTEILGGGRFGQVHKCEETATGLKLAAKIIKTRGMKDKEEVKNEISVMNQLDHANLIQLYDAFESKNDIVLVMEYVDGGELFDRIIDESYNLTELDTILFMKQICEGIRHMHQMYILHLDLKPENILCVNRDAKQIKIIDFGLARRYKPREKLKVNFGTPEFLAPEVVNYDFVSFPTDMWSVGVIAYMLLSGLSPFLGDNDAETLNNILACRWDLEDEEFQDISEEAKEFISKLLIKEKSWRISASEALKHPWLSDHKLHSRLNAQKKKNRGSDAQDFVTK
Method in brief: as §1

[5] = target: T5, scanMAX Kinase assay panel (Homo sapiens, UniProt O75676); details: 1 uM, read-out: Percent Control (%)
T5 construct: purchased DiscoverX
T5 sequence (O75676 whole entry): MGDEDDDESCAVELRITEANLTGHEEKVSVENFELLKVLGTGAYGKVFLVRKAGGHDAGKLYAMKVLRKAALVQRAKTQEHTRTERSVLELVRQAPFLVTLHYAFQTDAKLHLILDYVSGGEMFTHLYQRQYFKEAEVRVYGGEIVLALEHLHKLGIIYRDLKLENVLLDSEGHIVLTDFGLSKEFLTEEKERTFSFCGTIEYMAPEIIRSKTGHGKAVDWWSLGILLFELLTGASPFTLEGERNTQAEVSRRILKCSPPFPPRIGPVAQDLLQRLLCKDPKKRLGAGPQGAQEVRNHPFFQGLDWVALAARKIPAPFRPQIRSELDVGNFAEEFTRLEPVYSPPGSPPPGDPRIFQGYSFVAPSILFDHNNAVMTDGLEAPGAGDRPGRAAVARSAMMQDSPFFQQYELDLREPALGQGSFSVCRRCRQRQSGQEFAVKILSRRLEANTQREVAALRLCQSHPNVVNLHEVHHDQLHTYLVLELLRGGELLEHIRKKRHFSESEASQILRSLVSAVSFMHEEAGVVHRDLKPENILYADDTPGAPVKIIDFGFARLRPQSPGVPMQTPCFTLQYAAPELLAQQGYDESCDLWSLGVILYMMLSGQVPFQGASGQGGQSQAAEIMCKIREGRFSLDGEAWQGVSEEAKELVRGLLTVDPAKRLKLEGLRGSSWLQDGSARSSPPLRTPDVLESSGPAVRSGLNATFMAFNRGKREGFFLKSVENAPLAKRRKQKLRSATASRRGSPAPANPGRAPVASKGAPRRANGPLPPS
Method in brief: as §1

[6] = target: T6, scanMAX Kinase assay panel (Homo sapiens, UniProt P42679); details: CTK; 1 uM; read-out: Percent Control (%)
T6 construct: purchased DiscoverX
T6 sequence (P42679 1-507): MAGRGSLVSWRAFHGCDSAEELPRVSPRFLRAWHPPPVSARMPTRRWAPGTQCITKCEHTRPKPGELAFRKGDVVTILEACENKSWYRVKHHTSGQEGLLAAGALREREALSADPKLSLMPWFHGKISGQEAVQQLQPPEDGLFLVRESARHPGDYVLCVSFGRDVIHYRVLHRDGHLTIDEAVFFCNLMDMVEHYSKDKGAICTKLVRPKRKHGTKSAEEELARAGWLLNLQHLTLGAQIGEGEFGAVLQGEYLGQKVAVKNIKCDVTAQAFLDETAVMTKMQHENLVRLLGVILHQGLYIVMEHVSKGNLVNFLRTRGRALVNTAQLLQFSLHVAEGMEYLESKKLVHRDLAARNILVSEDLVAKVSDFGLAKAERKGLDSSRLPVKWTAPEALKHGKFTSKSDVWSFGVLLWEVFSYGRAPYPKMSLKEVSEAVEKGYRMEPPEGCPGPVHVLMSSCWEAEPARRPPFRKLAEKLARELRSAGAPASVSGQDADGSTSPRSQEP
Method in brief: as §1

[7] = target: T7, scanMAX Kinase assay panel (Homo sapiens, UniProt P54646); details: AMPK-alpha2; 1 uM; read-out: Percent Control (%)
T7 construct: purchased DiscoverX
T7 sequence (P54646 whole entry): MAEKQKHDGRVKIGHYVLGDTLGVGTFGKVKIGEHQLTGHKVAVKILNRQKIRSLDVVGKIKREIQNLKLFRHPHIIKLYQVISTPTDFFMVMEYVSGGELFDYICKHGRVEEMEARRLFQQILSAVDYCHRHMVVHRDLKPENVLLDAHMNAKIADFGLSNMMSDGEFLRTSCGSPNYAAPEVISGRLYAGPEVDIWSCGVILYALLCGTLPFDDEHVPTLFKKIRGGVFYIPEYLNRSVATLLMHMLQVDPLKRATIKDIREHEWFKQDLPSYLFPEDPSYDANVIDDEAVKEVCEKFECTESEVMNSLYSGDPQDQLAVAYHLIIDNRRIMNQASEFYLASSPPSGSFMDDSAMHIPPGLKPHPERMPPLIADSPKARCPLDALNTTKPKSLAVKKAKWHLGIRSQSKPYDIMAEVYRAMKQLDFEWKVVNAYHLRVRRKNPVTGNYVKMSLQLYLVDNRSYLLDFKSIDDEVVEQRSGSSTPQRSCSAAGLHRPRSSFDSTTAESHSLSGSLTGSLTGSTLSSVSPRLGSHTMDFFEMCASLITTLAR
Method in brief: as §1

[8] = target: T8, scanMAX Kinase assay panel (Homo sapiens, UniProt Q9BVS4); details: RIOK2; 1 uM; read-out: Percent Control (%)
T8 construct: purchased DiscoverX
T8 sequence (Q9BVS4 whole entry): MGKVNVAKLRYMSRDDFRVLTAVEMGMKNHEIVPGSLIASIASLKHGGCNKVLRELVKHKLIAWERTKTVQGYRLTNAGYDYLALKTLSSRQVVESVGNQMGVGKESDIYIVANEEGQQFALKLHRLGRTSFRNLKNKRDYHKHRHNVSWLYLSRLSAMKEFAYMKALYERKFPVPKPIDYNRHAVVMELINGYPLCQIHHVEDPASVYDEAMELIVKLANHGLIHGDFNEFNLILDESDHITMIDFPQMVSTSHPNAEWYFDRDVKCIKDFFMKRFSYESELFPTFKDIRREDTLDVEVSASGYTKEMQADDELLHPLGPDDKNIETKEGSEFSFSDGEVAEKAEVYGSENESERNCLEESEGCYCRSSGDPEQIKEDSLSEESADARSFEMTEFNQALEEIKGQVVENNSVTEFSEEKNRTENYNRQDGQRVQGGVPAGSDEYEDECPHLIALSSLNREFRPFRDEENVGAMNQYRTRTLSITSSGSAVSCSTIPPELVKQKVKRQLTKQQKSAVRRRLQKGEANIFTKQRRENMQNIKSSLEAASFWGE
Method in brief: as §1

[9] = target: T9, scanMAX Kinase assay panel (Homo sapiens, UniProt Q00536); details: PCTK1; 1 uM; read-out: Percent Control (%)
T9 construct: purchased DiscoverX
T9 sequence (Q00536 whole entry): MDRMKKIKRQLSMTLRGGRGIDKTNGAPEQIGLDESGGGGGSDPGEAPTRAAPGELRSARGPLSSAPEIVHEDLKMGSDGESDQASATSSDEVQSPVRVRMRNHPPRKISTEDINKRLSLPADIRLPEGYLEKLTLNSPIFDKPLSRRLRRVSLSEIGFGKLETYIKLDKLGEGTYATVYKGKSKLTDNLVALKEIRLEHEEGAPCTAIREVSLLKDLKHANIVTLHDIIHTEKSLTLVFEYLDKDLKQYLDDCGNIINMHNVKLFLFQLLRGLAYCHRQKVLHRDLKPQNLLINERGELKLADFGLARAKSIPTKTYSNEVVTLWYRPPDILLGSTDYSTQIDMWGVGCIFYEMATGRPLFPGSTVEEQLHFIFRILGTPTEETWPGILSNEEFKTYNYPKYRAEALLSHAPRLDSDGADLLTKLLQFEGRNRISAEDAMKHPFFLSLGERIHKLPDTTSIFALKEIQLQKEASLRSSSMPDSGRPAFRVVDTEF
Method in brief: as §1

[10] = target: T10, scanMAX Kinase assay panel (Homo sapiens, UniProt P50750); details: CDK9; 1 uM; read-out: Percent Control (%)
T10 construct: purchased DiscoverX
T10 sequence (P50750 whole entry): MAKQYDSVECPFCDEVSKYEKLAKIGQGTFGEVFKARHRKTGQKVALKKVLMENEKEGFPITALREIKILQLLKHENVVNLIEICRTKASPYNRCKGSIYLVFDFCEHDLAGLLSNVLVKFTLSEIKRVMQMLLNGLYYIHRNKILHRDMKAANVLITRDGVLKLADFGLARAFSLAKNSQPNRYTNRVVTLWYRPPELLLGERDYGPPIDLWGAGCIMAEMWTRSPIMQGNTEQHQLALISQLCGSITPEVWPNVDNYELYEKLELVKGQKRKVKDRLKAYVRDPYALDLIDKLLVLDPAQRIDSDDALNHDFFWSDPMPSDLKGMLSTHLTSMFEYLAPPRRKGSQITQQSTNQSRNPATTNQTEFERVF
Method in brief: as §1

Row | Structure (SMILES) | remaining binding at 1 µM [1] [%] | remaining binding at 1 µM [2] [%] | remaining binding at 1 µM [3] [%] | remaining binding at 1 µM [4] [%] | remaining binding at 1 µM ([5]; RPS6KA4 (Kin.Dom.1-N-terminal)) [%] | remaining binding at 1 µM ([5]; RPS6KA4 (Kin.Dom.2-C-terminal)) [%] | remaining binding at 1 µM [6] [%] | remaining binding at 1 µM [7] [%] | remaining binding at 1 µM [8] [%] | remaining binding at 1 µM [9] [%] | remaining binding at 1 µM [10] [%]
1 | Cc1ccc(NC(=O)C2(C(=O)Nc3ccc(F)cc3)CC2)cc1C#Cc1cnc2c(Nc3cnn(C(C)C)c3)cccn12 [Example 78] | 100 | 10 | 78 | 100 | 94 | 78 | 90 | 100 | 100 | 100 | 100
2 | Cc1cn(-c2cc(NC(=O)c3ccc(C)c(C#Cc4cnc5c(Nc6cnn(C)c6)cccn45)c3)cc(C(F)(F)F)c2)cn1 [Example 12, 4-methyl-N-(3-(4-methyl-1H-imidazol-1-yl)-5-(trifluoromethyl)phenyl)-3-((8-((1-methyl-1H-pyrazol-4-yl)amino)imidazo[1,2-a]pyridin-3-yl)ethynyl)benzamide] | 100 | 11 | 100 | 92 | 85 | 100 | 74 | 79 | 100 | 100 | 88
3 | Cc1ccc(C(=O)Nc2ccc(CN3CCN(C)CC3)c(C(F)(F)F)c2)cc1C#Cc1cnc2c(Nc3cnn(C)c3)cccn12 [Example 1, 4-methyl-3-((8-((1-methyl-1H-pyrazol-4-yl)amino)imidazo[1,2-a]pyridin-3-yl)ethynyl)-N-(4-((4-methylpiperazin-1-yl)methyl)-3-(trifluoromethyl)phenyl)benzamide] | 80 | 1 | 97 | 86 | 31 | 94 | 22 | 4 | 88 | 93 | 72
